Converted amounts (≈) assume the structure as drawn.
Experiments:
CCRF-CEM = assay: cells; conditions: Homo sapiens, 48 h; for CC50: read-out: LC50
K-562 = assay: cells; conditions: Homo sapiens, K562, 48 h; for GI50: K-562, 48 h; for CC50: read-out: LC50
NCI-H322M = assay: cells; conditions: Homo sapiens, 48 h; for CC50: read-out: LC50
MDA-MB-435 = assay: cells; conditions: Homo sapiens, MDA-MB-435, 48 h; for CC50: read-out: LC50
UACC-62 = assay: cells; conditions: Homo sapiens, UACC-62, 48 h; for CC50: read-out: LC50
IGROV1 = assay: cells; conditions: Homo sapiens, IGROV-1, 48 h; for CC50: read-out: LC50
[1] = Hemolytic activity, spectrophotometric; type: cell-based, human; conditions: human, human red blood cells (huRBC), 5% hematocrit, 200 μg/mL, 37 °C
HS 578T = assay: cells; conditions: Homo sapiens, 48 h; for CC50: read-out: LC50
OVCAR-8 = assay: cells; conditions: Homo sapiens, OVCAR-8, 48 h; for CC50: read-out: LC50
EKVX = assay: cells; conditions: Homo sapiens, 48 h; for CC50: read-out: LC50
SNB-19 = assay: cells; conditions: Homo sapiens, SNB-19, 48 h; for CC50: read-out: LC50
HCC-2998 = assay: cells; conditions: Homo sapiens, HCC 2998, 48 h; for CC50: read-out: LC50
PC-3 = assay: cells; conditions: Homo sapiens, PC-3, 48 h; for CC50: read-out: LC50
HOP-62 = assay: cells; conditions: Homo sapiens, HOP-62, 48 h; for CC50: read-out: LC50
A. niger (ATCC 9029) = assay: Antifungal broth microdilution (CLSI); type: cell-based; conditions: ATCC9029; Ani: Aspergillus niger
Procedure: (§1) Several of the obtained triazine derivatives were evaluated against sensitive fungal species comprising of two yeasts (Candida albicans (ATCC 10231), Cryptococcus neoformans (ATCC 32264)), three dermatophytes (Microsporum gypseum (CCC 115), Trichophyton rubrum (CCC 134-2000), Trichophyton mentagrophytes (CCC 202-2000)), and three Aspergillus fungi ((A. [NT] 26934), A. niger (ATCC 9029), and A. flavus (ATCC 9170)). […] Broth microdilution techniques were performed in 96-well microplates according to the Reference Method for Broth Dilution Antifungal Susceptibility Testing of Yeasts, document M27-A3 [86] and of Filamentous Fungi […]-A8 [87]. […] An inoculum suspension (100 μL) was added to each well (final well volume = 200 μL). One growth control well (containing medium, inoculum, and the same amount of DMSO as used for each compound) and one sterility control well (sample, medium, and sterile water instead of inoculum) were included for each fungus tested. Microtiter plates were incubated in a dark, humid chamber at 30 °C for the time necessary for each fungus. Amphotericin B, Terbinafine, Fluconazole and Itraconazole were used as a positive control. The tests were performed in triplicate.

[2] = test system: Microsporum gypseum (CCC 115); assay: Antifungal broth microdilution (CLSI); type: cell-based; conditions: Nannizzia gypsea; Mg: Microsporum gypseum
Procedure: as §1

RXF 393 = assay: cells; conditions: Homo sapiens, RXF 393, 48 h
BT-549 = assay: cells; conditions: Homo sapiens, BT-549, 48 h; for CC50: read-out: LC50
SF-268 = assay: cells; conditions: Homo sapiens, SF-268, 48 h; for CC50: read-out: LC50
SK-MEL-28 = assay: cells; conditions: Homo sapiens, SK-MEL-28, 48 h; for CC50: read-out: LC50
ACHN = assay: cells; conditions: Homo sapiens, 48 h; for CC50: read-out: LC50
OVCAR-3 = assay: cells; conditions: Homo sapiens, OVCAR-3, 48 h; for CC50: read-out: LC50
MALME-3M = assay: cells; conditions: Homo sapiens, 48 h; for CC50: read-out: LC50
SW-620 = assay: cells; conditions: Homo sapiens, SW-620, 48 h; for CC50: read-out: LC50
CAKI-1 = assay: cells; conditions: Homo sapiens, CAKI-1, 48 h; for CC50: read-out: LC50
SR = assay: cells; conditions: Homo sapiens, 48 h; for CC50: read-out: LC50
NCI/ADR-RES = assay: cells; conditions: Homo sapiens, 48 h

## CN(C)c1nc(NCCNS(=O)(=O)c2ccc(C3=Nc4c(N)nc(N)nc4NC(c4ccc(C(F)(F)F)cc4)C3)cc2)nc(N2CCOCC2)n1 (centres unmarked) [30g]
CCRF-CEM
  GI50: 25.9 µM
  CC50: > 100 µM
K-562
  GI50: 29.1 µM
  CC50: > 100 µM
NCI-H322M
  GI50: 45.4 µM
  CC50: > 100 µM
MDA-MB-435
  GI50: 34.2 µM
  CC50: > 100 µM
UACC-62
  GI50: 16.4 µM
  CC50: 81.1 µM
IGROV1
  GI50: 27 µM
  CC50: > 100 µM
[1]
  hemolysis at 24 h, 200 µg/mL: 2.4%
HS 578T
  GI50: 19.2 µM
  CC50: > 100 µM
OVCAR-8
  GI50: 59.5 µM
  CC50: > 100 µM
EKVX
  GI50: 47.2 µM
  CC50: > 100 µM
SNB-19
  GI50: 30 µM
  CC50: > 100 µM
HCC-2998
  GI50: 20.2 µM
  CC50: > 100 µM
PC-3
  GI50: 24.6 µM
  CC50: > 100 µM
HOP-62
  GI50: 50.7 µM
  CC50: > 100 µM
A. niger (ATCC 9029)
  MIC: > 250 µg/mL
[2]
  MIC: > 250 µg/mL
RXF 393
  GI50: 10.3 µM
RXF 393; read-out: LC50
  CC50: > 100 µM
BT-549
  GI50: 13.8 µM
  CC50: 73.1 µM
SF-268
  GI50: 19.9 µM
  CC50: > 100 µM
SK-MEL-28
  GI50: 34.1 µM
  CC50: > 100 µM
ACHN
  GI50: 64.4 µM
  CC50: > 100 µM
OVCAR-3
  GI50: 53.9 µM
  CC50: > 100 µM
MALME-3M
  GI50: 19.9 µM
  CC50: > 100 µM
SW-620
  GI50: 46.9 µM
  CC50: > 100 µM
CAKI-1
  GI50: 25.9 µM
  CC50: > 100 µM
SR
  GI50: 18.1 µM
  CC50: > 100 µM

## COc1cc(/C=C/C(=O)c2cc(OC)c(OC)c(OC)c2)ccc1Oc1nc(Nc2ccc(F)cc2)nc(N(C)C)n1 [21d]
CCRF-CEM
  GI50: 2.19 µM
  CC50: > 100 µM
K-562
  GI50: 1.4 µM
  CC50: > 100 µM
NCI-H322M
  GI50: 2.99 µM
  CC50: > 100 µM
MDA-MB-435
  GI50: 1.63 µM
  CC50: 7.69 µM
UACC-62
  GI50: 1.41 µM
  CC50: 6.38 µM
IGROV1
  GI50: 1.93 µM
  CC50: 12.2 µM
[1]
  hemolysis at 24 h, 200 µg/mL: 8%
HS 578T
  GI50: 2.39 µM
  CC50: > 100 µM
NCI/ADR-RES
  GI50: 1.42 µM
NCI/ADR-RES; read-out: LC50
  CC50: 8.08 µM
OVCAR-8
  GI50: 1.55 µM
  CC50: > 100 µM
EKVX
  GI50: 2.15 µM
  CC50: 31.1 µM
SNB-19
  GI50: 1.86 µM
  CC50: 18.5 µM
HCC-2998
  GI50: 2.03 µM
  CC50: 8.52 µM
PC-3
  GI50: 2.77 µM
  CC50: > 100 µM
HOP-62
  GI50: 1.83 µM
  CC50: 8.22 µM
A. niger (ATCC 9029)
  MIC: 125 µg/mL (≈ 217 µM)
[2]
  MIC: > 250 µg/mL
BT-549
  GI50: 1.56 µM
  CC50: 6.56 µM
SF-268
  GI50: 3.43 µM
  CC50: > 100 µM
SK-MEL-28
  GI50: 1.8 µM
  CC50: 9.23 µM
ACHN
  GI50: 2.3 µM
  CC50: 50.6 µM
OVCAR-3
  GI50: 2.57 µM
  CC50: > 100 µM
MALME-3M
  GI50: 1.75 µM
  CC50: 11.1 µM
SW-620
  GI50: 1.55 µM
  CC50: 6.89 µM
CAKI-1
  GI50: 1.98 µM
  CC50: 25.1 µM
SR
  GI50: 0.7 µM
  CC50: > 100 µM

— publication PMC11012124, “Synthesis of Novel Triazine-Based Chalcones and 8,9-dihydro-7H-pyrimido[4,5-b][1,4]diazepines as Potential Leads in the Search of Anticancer, Antibacterial and Antifungal Agents” (International Journal of Molecular Sciences, 2024)
